In ChEMBL document CHEMBL5030547, “Synthesis and biological studies of new piperidino-1,2,3-triazole hybrids with 3-aryl isoxazole side chains” (Bioorg Med Chem Lett, 2021):
pIC50: −log10 of the molar value.

Key:
Huh-7 = assay: Cytotoxicity against human Huh-7 cells assessed as reduction in cell viability after 48 hrs; format: functional, cell-based; conditions: Huh-7, 48 h
Caco-2 = assay: Cytotoxicity against human Caco-2 cells assessed as reduction in cell viability after 48 hrs; format: functional, cell-based; conditions: Caco-2, 48 h
MDA-MB-231 = assay: Cytotoxicity against human MDA-MB-231 cells assessed as reduction in cell viability after 48 hrs; format: functional, cell-based; conditions: MDA-MB-231, 48 h
MDA-MB-468 = assay: Cytotoxicity against human MDA-MB-468 cells assessed as reduction in cell viability after 48 hrs; format: functional, cell-based; conditions: MDA-MB-468, 48 h
HCT-116 = assay: Cytotoxicity against human HCT-116 cells assessed as reduction in cell viability after 48 hrs; format: functional, cell-based; conditions: HCT-116, 48 h
PC-3 = assay: Cytotoxicity against human PC-3 cells assessed as reduction in cell viability after 48 hrs; format: functional, cell-based; conditions: PC-3, 48 h
MCF7 [1] = assay: Cytotoxicity against human MCF7 cells assessed as reduction in cell viability after 48 hrs; format: functional, cell-based; conditions: MCF7, 48 h
Fibroblast = assay: Cytotoxicity against human skin fibroblast cells assessed as reduction in cell viability after 48 hrs; format: cell-based
MCF7 [2] = assay: Inhibition of Bcl-XL- PUMA protein-protein interaction in human MCF7 cells at 20 uM incubated for overnight by BRET assay relative to control; format: cell-based
[3] = Inhibition of Bcl-XL- PUMA protein-protein interaction in human MCF7 cells incubated for overnight by BRET assay; format: cell-based

| pIC50 [3] | SMILES | pIC50 (Huh-7; read-out: IC50) | pIC50 (Caco-2) | pIC50 (MDA-MB-231) | pIC50 (MDA-MB-468) | pIC50 (HCT-116) | pIC50 (PC-3) | pIC50 (MCF7 [1]) | pIC50 (Fibroblast) | inhibition (MCF7 [2]) [%] | pIC50 (Huh-7) |
| --- | --- | --- | --- | --- | --- | --- | --- | --- | --- | --- | --- |
| – | N#Cc1ccc(-c2cc(COC(Cc3cn(C4CCN(Cc5ccc([N+](=O)[O-])cc5)CC4)nn3)c3ccc(Br)cc3)on2)cc1 (centres undefined) | 5.30 | 5.70 | < 4.60 | 5.30 | < 4.60 | 5.70 | 5.52 | < 4.60 | – | – |
| – | O=[N+]([O-])c1ccc(CN2CCC(n3cc(CC(OCc4cc(-c5ccc(Br)cc5)no4)c4ccc(Br)cc4)nn3)CC2)cc1 (centres undefined) | 5.70 | 5.52 | < 4.60 | 5.30 | < 4.60 | < 4.60 | 5.40 | < 4.60 | – | – |
| – | COc1ccc(-c2cc(COC(Cc3cn(C4CCN(Cc5ccc([N+](=O)[O-])cc5)CC4)nn3)c3ccc(Br)cc3)on2)cc1 (centres undefined) | 5.70 | 5.52 | < 4.60 | 5.05 | < 4.60 | 5.52 | 5.40 | < 4.60 | – | – |
| – | O=[N+]([O-])c1ccc(CN2CCC(n3cc(CC(OCc4cc(-c5cccc(F)c5)no4)c4ccc(Br)cc4)nn3)CC2)cc1 (centres undefined) | 5.52 | 5.30 | 5.30 | 5.52 | 5.22 | 5.05 | 5.10 | 5.00 | – | – |
| – | COc1ccccc1-c1cc(COC(Cc2cn(C3CCN(Cc4ccc([N+](=O)[O-])cc4)CC3)nn2)c2ccc(Br)cc2)on1 (centres undefined) | 5.30 | < 4.60 | < 4.60 | < 4.60 | < 4.60 | < 4.60 | 5.52 | < 4.60 | – | – |
| – | N#Cc1cccc(-c2cc(COC(Cc3cn(C4CCN(Cc5ccc([N+](=O)[O-])cc5)CC4)nn3)c3ccc(Br)cc3)on2)c1 (centres undefined) | 5.52 | 5.52 | < 4.60 | < 4.60 | < 4.60 | < 4.60 | 5.70 | < 4.60 | – | – |
| 5.42 | O=[N+]([O-])c1ccc(CN2CCC(n3cc(CC(OCc4cc(-c5ccccc5F)no4)c4ccc(Br)cc4)nn3)CC2)cc1 (centres undefined) | 5.70 | 5.40 | 5.40 | 5.40 | 5.05 | 5.22 | 5.10 | < 4.60 | 10 | – |
| – | O=[N+]([O-])c1ccc(CN2CCC(n3cc(CC(OCc4cc(-c5ccc(F)cc5)no4)c4ccc(Br)cc4)nn3)CC2)cc1 (centres undefined) | 5.70 | 5.52 | < 4.60 | 5.40 | < 4.60 | < 4.60 | 5.15 | < 4.60 | – | – |
| – | CC[C@H](CO)Nc1nc(NCc2ccccc2)c2ncn(C(C)C)c2n1 [SELICICLIB] | – | – | 4.77 | 4.74 | – | 4.96 | – | 4.82 | – | 5.05 |
| – | O=[N+]([O-])c1ccc(CN2CCC(n3cc(CC(OCc4cc(-c5ccccc5Br)no4)c4ccc(Br)cc4)nn3)CC2)cc1 (centres undefined) | < 4.60 | 5.52 | < 4.60 | < 4.60 | < 4.60 | < 4.60 | 5.22 | < 4.60 | – | – |
| – | O=[N+]([O-])c1ccc(CN2CCC(n3cc(CC(OCc4cc(-c5ccccc5)no4)c4ccc(Br)cc4)nn3)CC2)cc1 (centres undefined) | 5.15 | 5.15 | < 4.60 | 5.52 | < 4.60 | < 4.60 | < 4.60 | < 4.60 | – | – |
| – | O=[N+]([O-])c1ccc(CN2CCC(n3cc(CC(OCc4cc(-c5cccc(Br)c5)no4)c4ccc(Br)cc4)nn3)CC2)cc1 (centres undefined) | 5.52 | 5.30 | < 4.60 | < 4.60 | < 4.60 | < 4.60 | 5.22 | < 4.60 | – | – |
| – | COc1cccc(-c2cc(COC(Cc3cn(C4CCN(Cc5ccc([N+](=O)[O-])cc5)CC4)nn3)c3ccc(Br)cc3)on2)c1 (centres undefined) | 5.30 | 5.30 | < 4.60 | < 4.60 | < 4.60 | < 4.60 | 5.15 | < 4.60 | – | – |
| – | COc1cccc2c1C(=O)c1c(O)c3c(c(O)c1C2=O)C[C@@](O)(C(=O)CO)C[C@@H]3O[C@H]1C[C@H](N)[C@H](O)[C@H](C)O1 [DOXORUBICIN] | 7.70 | – | 7.40 | 7.22 | 7.10 | – | 7.00 | 7.70 | – | – |
